Laboratory results taken from the supplement of paper PMC11781733.

Key:
Settings in all cases: exposure time: 15 min to 3 h acute
[1] = system: Dugesia japonica; experiment: speed in dark vs vehicle (% change vs vehicle); higher = higher incidence or increase relative to vehicle control
Procedure, shortened: (§1)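 Automated tracking recorded crawling speed of intact, fasted Dugesia japonica in the dark or under blue light, and values are reported as the median percent change relative to the plate's vehicle median. Worms sat singly in wells of a 48-well plate in 200 μL and were tested 15 min to 3 h after exposure in 0.5% DMSO or water vehicle. Worms that crawled out were left out, with eight per concentration per plate in technical triplicate (n = 24).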

[2] = system: Dugesia japonica; experiment: pharynx extrusion incidence (% planarians (vehicle-normalised)); higher = higher incidence or increase relative to vehicle control
Procedure, shortened: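 Blind manual scoring of pharynx extrusion, treated as a body-shape category, was done on intact, fasted Dugesia japonica. Worms sat singly in 200 μL per well of a 48-well plate, in water or 0.5% DMSO vehicle, and were tested between 15 min and 3 h after exposure. Eight worms per concentration per plate were run in technical triplicate (n = 24), and any that crawled out were excluded. The incidence was normalised to in-plate vehicle controls, with negatives set to 0.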

[3] = system: Dugesia japonica; experiment: anxiety (time in outer well region) vs vehicle (% change vs vehicle); higher = higher incidence or increase relative to vehicle control
Procedure, shortened: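 D. japonica planarians (fasted 5–7 days), one per well in 200 μL in sealed 48-well plates, were exposed to at least 5 concentrations (n = 24 per concentration, technical triplicates) and screened within 15 minutes–3 hours. Time spent in the outer portion of the well was measured by object tracking in MATLAB or Python; worms that crawled out were excluded. Each worm's response was divided by, or reduced by, the plate vehicle median and multiplied by 100. The value is the median.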

[4] = system: Dugesia japonica; experiment: resting fraction in dark vs vehicle (difference in fraction x100 vs vehicle); higher = higher incidence or increase relative to vehicle control
Procedure, shortened: (§2)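 Automated tracking of intact, fasted Dugesia japonica, one worm per well of a 48-well plate in 200 μL, was used to measure the resting fraction in the dark or under blue light. Testing took place 15 min to 3 h after exposure in 0.5% DMSO or water vehicle. Each plate held eight worms per concentration, run in technical triplicate. For each worm, the plate's vehicle median was subtracted and the difference multiplied by 100; the median of these values is reported, with worms that crawled out excluded.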

[5] = system: Dugesia japonica; experiment: total locomotor bursts minus vehicle (bursts difference vs vehicle); higher = higher incidence or increase relative to vehicle control
Procedure, shortened: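 Fasted Dugesia japonica planarians were placed one per well in a sealed 48-well plate with 200 μL solution and exposed to half- or quarter-log concentration series, with 0.5% DMSO or water as vehicle. Testing took place 15 min–3 h after exposure, with technical triplicates totalling n = 24. Total locomotor bursts, an unstimulated behaviour, were scored by image-based object tracking, and the plate vehicle-control median was subtracted from each planarian's value without scaling. The reported value is the median normalised response, excluding worms that crawled out.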

[6] = system: Dugesia japonica; experiment: crawl-out incidence (% planarians); higher = higher incidence or increase relative to vehicle control
[7] = system: Dugesia japonica; experiment: corkscrew incidence (% planarians (vehicle-normalised)); higher = higher incidence or increase relative to vehicle control
Procedure, shortened: (§3)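 A blinded researcher manually scored planarian body shapes (contraction, C-shape, corkscrew, hyperkinesis), leaving out any worm that crawled out of its well. The D. japonica worms had been fasted 5–7 days, kept one per well in 200 μL in sealed 48-well plates, and screened within 15 minutes–3 hours of exposure to at least 5 concentrations. Values give shape incidence ×100, normalised to vehicle controls in the same plate, with negatives set to 0.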

[8] = system: Dugesia japonica; experiment: hyperkinesis incidence (% planarians (vehicle-normalised)); higher = higher incidence or increase relative to vehicle control
Procedure, shortened: as §3

[9] = system: Dugesia japonica; experiment: speed second 30 s blue light vs vehicle (% change vs vehicle); higher = higher incidence or increase relative to vehicle control
Procedure, shortened: as §1

[10] = system: Dugesia japonica; experiment: resting fraction in blue light vs vehicle (difference in fraction x100 vs vehicle); higher = higher incidence or increase relative to vehicle control
Procedure, shortened: as §2

[11] = system: Dugesia japonica; experiment: loss of phototaxis incidence (% planarians (vehicle-normalised)); higher = higher incidence or increase relative to vehicle control
Procedure, shortened: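 Automated object tracking was used to score intact, fasted Dugesia japonica for loss of phototaxis as a yes/no outcome. Worms sat one per well in 200 μL on 48-well plates and were tested 15 min to 3 h after exposure in 0.5% DMSO or water vehicle. The incidence rate ×100 was normalised to in-plate vehicle controls, negatives were set to 0, and worms that crawled out were left out.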

[12] = system: Dugesia japonica; experiment: C-shape incidence (% planarians (vehicle-normalised)); higher = higher incidence or increase relative to vehicle control
Procedure, shortened: as §3

[13] = system: Dugesia japonica; experiment: loss of heat-induced scrunching incidence (% planarians (vehicle-normalised)); higher = higher incidence or increase relative to vehicle control
Procedure, shortened: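 D. japonica planarians (fasted 5–7 days), one per well in 200 μL in sealed 48-well plates, were exposed to at least 5 concentrations (n = 24 per concentration, technical triplicates). They were tested within 15 minutes–3 hours for scrunching in response to a noxious heat stimulus; worms that crawled out were excluded. The value is the incidence ×100 of worms without scrunching, normalised to in-plate vehicle controls, with negatives set to 0.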

[14] = system: Dugesia japonica; experiment: speed first 30 s blue light vs vehicle (% change vs vehicle); higher = higher incidence or increase relative to vehicle control
Procedure, shortened: as §1

[15] = system: Dugesia japonica; experiment: stickiness incidence (% planarians (vehicle-normalised)); higher = higher incidence or increase relative to vehicle control
Procedure, shortened: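 Fasted Dugesia japonica planarians, one per well of a sealed 48-well plate in 200 μL solution, were tested 15 min–3 h after exposure to half- or quarter-log concentration series. The vehicle was 0.5% DMSO or water. Stickiness was scored as a binary endpoint in the Stickiness assay, pooling technical triplicates (n = 24). Incidence was normalised to in-plate vehicle incidence, with negatives set to 0, and multiplied by 100. Crawled-out worms were excluded.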

[16] = system: Dugesia japonica; experiment: any abnormal body shape incidence (% planarians (vehicle-normalised)); higher = higher incidence or increase relative to vehicle control
Procedure, shortened: as §3

[17] = system: Dugesia japonica; experiment: contracted body shape incidence (% planarians (vehicle-normalised)); higher = higher incidence or increase relative to vehicle control
Procedure, shortened: as §3

[18] = system: Dugesia japonica; experiment: noxious heat displacement strength vs vehicle (% change vs vehicle); higher = higher incidence or increase relative to vehicle control
Procedure, shortened: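 Displacement strength under noxious heat was measured in the scrunching assay on intact, fasted Dugesia japonica, one per well of a 48-well plate in 200 μL. Worms were tested 15 min to 3 h after exposure in 0.5% DMSO or water vehicle, using automated object tracking. Eight worms per concentration per plate were run in technical triplicate (n = 24). Each worm was normalised to the plate's vehicle median, and the value is the median percent change; worms that crawled out were excluded.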

Compound | speed in dark [1] | pharynx extrusion incidence [2] | anxiety [3] | resting fraction in dark [4] | total locomotor bursts minus vehicle [5] | crawl-out incidence [6] | corkscrew incidence [7] | hyperkinesis incidence [8] | speed second 30 s blue light [9] | resting fraction in blue light [10] | loss of phototaxis incidence [11] | C-shape incidence [12] | loss of heat-induced scrunching incidence [13] | speed first 30 s blue light [14] | stickiness incidence [15] | any abnormal body shape incidence [16] | contracted body shape incidence [17] | noxious heat displacement strength [18]
Cc1cc2c(s1)Nc1ccccc1N=C2N1CCN(C)CC1 [olanzapine] (100 µM) | -67.8 | 0 | 18.3 | 79.9 | -2.75 | 41.7 | 18.2 | 45.5 | -91.1 | 76 | 7.14 | 13.6 | 68.2 | -93.9 | 27.3 | 77.3 | 27.3 | -50.1
Cc1cc2c(s1)Nc1ccccc1N=C2N1CCN(C)CC1 [olanzapine] (316 µM) | -71.2 | 0 | -6.74 | 73.9 | 7 | 37.5 | 13.6 | 45.5 | -89.1 | 77.4 | 13.3 | 27.3 | 72.7 | -94.9 | 22.7 | 81.8 | 31.8 | -47.4
O=C(O)C(=O)O [oxalic acid] (100 µM) | -6.93 | 0 | 24.9 | -1.66 | 6.5 | 0 | 0 | 12.5 | -8.31 | 1.86 | ≤ 0 | 0 | 8.33 | -25.2 | ≤ 0 | 12.5 | 0 | -11.5
O=C(O)C(=O)O [oxalic acid] (316 µM) | -42.2 | 0 | -24.7 | 33 | 31.5 | 0 | 0 | 58.3 | -69 | 22.9 | 8.33 | 0 | ≤ 0 | -63.2 | 37.5 | 62.5 | 0 | -67.5
O=C(O)C(=O)O [oxalic acid] (1000 µM) | -53.2 | 0 | -19.2 | 60.5 | 4 | 0 | 0 | 0 | -90.4 | 63.9 | 54.2 | 41.7 | 83.3 | -88.1 | ≤ 0 | 62.5 | 50 | -57
CN1CCN(CCCN2c3ccccc3Sc3ccc(Cl)cc32)CC1 [prochloroperazine] (3.16 µM) | -37.4 | 0 | 19 | 15.2 | 14.8 | 4.17 | 0 | 12.5 | -55.6 | -3.15 | 17.4 | 0 | 45.8 | -37.9 | 4.17 | 16.7 | 4.17 | -46.2
CN1CCN(CCCN2c3ccccc3Sc3ccc(Cl)cc32)CC1 [prochloroperazine] (10 µM) | -74.9 | 0 | 21.9 | 38.3 | 12.5 | 25 | 0 | 25 | -85.8 | 52.9 | 50 | 12.5 | 66.7 | -81.4 | 4.17 | 37.5 | 4.17 | -55.5
CN1CCN(CCCN2c3ccccc3Sc3ccc(Cl)cc32)CC1 [prochloroperazine] (31.6 µM) | -65.5 | 0 | 24 | 60.9 | -3 | 20.8 | 4.35 | 26.1 | -83.6 | 75.3 | 63.2 | 34.8 | 65.2 | -89.8 | ≤ 0 | 73.9 | 21.7 | -47.9
